From patent publication EP4678638A1, “NEW E3 UBIQUITIN LIGASE LIGAND, PROTEIN DEGRADATION AGENT AND USE THEREOF” (priority 2023, dated 2024)

Tests used:
ALK = target: T1, ALK (Homo sapiens, UniProt Q96SW2+Q9HC35+Q9UM73); test: Western blot degradation of ALK (H2228 Cell); type: cell-based; details: Table D5
T1 construct: evaluate the effects of the compounds of the present disclosure on the expression of target proteins in cells; endogenous in cells; host or cells: H2228
Protocol: Conventional Western blot assay was performed to evaluate the effects of the compounds of the present disclosure on the expression of target proteins in cells.
(1) Cell Seeding and Protein Harvesting: The selected cells were processed according to the cell seeding procedure and protein harvesting procedure in Table III-2. Table III-2 Cell Seeding and Protein Harvesting Procedures
(2) To the collected supernatant, 5X SDS sample loading buffer was added, followed by denaturation at 95°C for 5 minutes. The denatured samples were then separated by SDS-PAGE electrophoresis on a polyacrylamide gel. Proteins were transferred to a nitrocellulose membrane (0.45 µm NC membrane), blocked with blocking buffer at room temperature for 1 hour, and subjected to antibody incubation and development procedures according to the antibody manufacturer's instructions (Cell Signaling Technology).
Half-Maximal Degradation Concentration value (the drug concentration required for degrading proteins by 50%, abbreviated as DC50) reads method: comparing the grayscale values of Western blot bands from drug-treated samples with those from blank DMSO-treated controls, and identifying the drug concentration range at which the grayscale value is half that of the DMSO-treated control bands.
DC50 values can be calculated using ImageJ software to measure grayscale values of Western blot bands from drug-treated samples. The concentration-response curve is fitted to estimate the drug concentration corresponding to half the grayscale value.
Target protein remaining (%) refers to the percentage of target protein remaining in hPBMC cells after treatment with protein degrader compounds.
Calculation method for target protein remaining (%): Use ImageJ software to measure grayscale values of Western blot bands from drug (protein degrader)-treated samples. The grayscale value of drug-treated bands is divided by that of internal control protein bands, and the resulting quotient is normalized to obtain the relative percentage of remaining target protein after protein degrader treatment.
Target protein degradation rate (%) = 100% - target protein remaining (%).

H1975 = test: CCK-8 proliferation, NCI-H1975 (H1975); type: cell-based, Human; details: Homo sapiens, NCI-H1975; Table B6, compounds designed based on the ALK inhibitors; H1975 cells; read-out: Inhibitory activity (IC50, nM) on tumor cell proliferation, H1975
How it was run: (§1)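 Cells seeded, then after 24 h treated with 10 concentrations (top 10 µM, 5-fold serial dilution) for a line-specific time at 37°C, 5% CO2. Viability read by CCK-8; IC50 fitted from growth-inhibition curves.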

SR = test: CCK-8 proliferation, SR; type: cell-based, Human; details: Homo sapiens; Table B6, compounds designed based on the ALK inhibitors; SR cells; read-out: Inhibitory activity (IC50, nM) on tumor cell proliferation, SR
How it was run: as §1

[1] = target: T2, human Cereblon WT GST-tagged protein (Homo sapiens, UniProt Q96SW2); test: CRBN binding, HTRF (CEREBLON BINDING kit); details: Table II-2, CRBN binding screening, HTRF; for inhibition at 0.5 µM: read-out: Inhibition rate (%) at 0.5µM; for inhibition at 2 µM: read-out: Inhibition rate (%) at 2 µM
T2 construct: purchased CISBIO 64BDCRBNPEH
How it was run: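 Competitive HTRF: GST-tagged human WT Cereblon mixed with compound, Thalidomide-Re tracer and GST Eu antibody, incubated 3 h at room temperature. Signals read at 620 and 665 nm.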

T1 sequence (Q9HC35+Q9UM73 fused): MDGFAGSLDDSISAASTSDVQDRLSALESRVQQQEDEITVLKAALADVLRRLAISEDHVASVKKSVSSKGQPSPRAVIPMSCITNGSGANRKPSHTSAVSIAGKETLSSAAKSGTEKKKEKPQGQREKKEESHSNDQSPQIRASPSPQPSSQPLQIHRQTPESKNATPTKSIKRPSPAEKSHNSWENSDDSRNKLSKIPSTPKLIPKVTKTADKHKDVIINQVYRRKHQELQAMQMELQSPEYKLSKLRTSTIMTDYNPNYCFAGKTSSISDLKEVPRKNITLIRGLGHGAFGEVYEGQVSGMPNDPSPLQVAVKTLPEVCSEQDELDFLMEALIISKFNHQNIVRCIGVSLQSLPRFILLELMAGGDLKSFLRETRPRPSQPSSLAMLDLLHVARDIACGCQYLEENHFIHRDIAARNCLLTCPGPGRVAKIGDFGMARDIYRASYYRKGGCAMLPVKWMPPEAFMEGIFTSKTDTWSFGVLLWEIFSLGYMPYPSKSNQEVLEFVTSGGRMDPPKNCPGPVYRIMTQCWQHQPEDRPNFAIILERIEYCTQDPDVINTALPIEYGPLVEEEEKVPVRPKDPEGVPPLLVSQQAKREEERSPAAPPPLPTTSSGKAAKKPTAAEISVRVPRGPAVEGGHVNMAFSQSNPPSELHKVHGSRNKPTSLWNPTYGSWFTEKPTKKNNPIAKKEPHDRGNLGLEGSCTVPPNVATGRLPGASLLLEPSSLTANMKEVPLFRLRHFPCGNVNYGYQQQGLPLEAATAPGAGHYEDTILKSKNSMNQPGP
T1 sequence (Q96SW2 whole entry): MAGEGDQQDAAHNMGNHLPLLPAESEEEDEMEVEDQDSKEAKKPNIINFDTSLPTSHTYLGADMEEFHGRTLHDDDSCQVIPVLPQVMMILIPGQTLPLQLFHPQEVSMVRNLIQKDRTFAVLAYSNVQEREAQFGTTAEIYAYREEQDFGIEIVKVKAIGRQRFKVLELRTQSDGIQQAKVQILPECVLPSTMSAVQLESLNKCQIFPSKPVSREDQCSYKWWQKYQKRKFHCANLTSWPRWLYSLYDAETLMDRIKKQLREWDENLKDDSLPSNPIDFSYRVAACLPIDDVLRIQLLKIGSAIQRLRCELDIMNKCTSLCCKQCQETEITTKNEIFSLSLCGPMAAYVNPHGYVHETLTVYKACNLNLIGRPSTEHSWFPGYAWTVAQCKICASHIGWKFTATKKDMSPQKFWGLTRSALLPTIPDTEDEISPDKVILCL
T1 sequence (Q16531 whole entry partner): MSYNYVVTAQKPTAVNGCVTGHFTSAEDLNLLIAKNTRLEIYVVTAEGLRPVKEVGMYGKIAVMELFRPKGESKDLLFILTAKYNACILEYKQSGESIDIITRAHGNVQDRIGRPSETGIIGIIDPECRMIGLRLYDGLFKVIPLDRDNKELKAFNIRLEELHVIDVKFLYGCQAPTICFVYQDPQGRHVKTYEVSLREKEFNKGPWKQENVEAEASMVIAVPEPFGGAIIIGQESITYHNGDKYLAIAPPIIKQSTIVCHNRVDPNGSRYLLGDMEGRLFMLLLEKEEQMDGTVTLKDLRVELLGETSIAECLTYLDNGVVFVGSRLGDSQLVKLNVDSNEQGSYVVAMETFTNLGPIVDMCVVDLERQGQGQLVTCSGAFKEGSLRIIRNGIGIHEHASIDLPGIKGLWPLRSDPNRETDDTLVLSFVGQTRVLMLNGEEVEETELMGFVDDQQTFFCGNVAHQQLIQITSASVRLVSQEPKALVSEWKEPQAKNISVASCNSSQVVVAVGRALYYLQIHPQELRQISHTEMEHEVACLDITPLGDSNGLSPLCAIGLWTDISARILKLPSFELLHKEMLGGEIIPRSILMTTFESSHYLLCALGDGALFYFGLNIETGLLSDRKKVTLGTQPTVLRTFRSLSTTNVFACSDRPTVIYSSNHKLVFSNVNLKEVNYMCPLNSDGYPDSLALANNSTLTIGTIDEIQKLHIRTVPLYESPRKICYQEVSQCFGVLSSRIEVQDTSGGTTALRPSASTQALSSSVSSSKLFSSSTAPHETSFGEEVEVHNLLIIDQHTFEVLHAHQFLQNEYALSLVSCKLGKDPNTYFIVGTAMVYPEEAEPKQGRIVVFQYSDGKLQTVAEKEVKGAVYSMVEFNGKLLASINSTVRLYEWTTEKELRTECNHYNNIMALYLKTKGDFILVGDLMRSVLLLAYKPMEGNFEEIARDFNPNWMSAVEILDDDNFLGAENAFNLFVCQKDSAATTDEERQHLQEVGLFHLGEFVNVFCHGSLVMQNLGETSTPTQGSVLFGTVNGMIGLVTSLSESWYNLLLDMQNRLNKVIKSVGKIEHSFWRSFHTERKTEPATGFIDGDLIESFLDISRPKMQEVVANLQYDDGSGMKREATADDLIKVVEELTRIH
T2 sequence (Q96SW2 whole entry): as the sequence (Q96SW2 whole entry) above

Row | SMILES | Degradation of substrate protein ALK (substrate protein remaining %) (ALK) | also measured
1 | COc1cc(N2CCC(N(C)Cc3cnc(N4CCC(=O)NC4=O)cn3)CC2)ccc1Nc1ncc(Cl)c(Nc2ccccc2P(C)(C)=O)n1 [GT-07751, 1-(5-(((1-(4-((5-chloro-4-((2-(dimethylphosphoryl)phenyl)amino)pyrimidin-2-yl)amino)-3-methoxyphenyl)piperidin-4-yl)(methyl)amino)methyl)pyrazin-2-yl)dihydropyrimidine-2,4(1H,3H)-dione] | A (A is defined as 0% ≤ substrate protein remaining % ≤ 80%) | –
2 | COc1cc(N2CCN(Cc3ccc(C4CCC(=O)NC4=O)cc3)CC2)ccc1Nc1ncc(Cl)c(Nc2ccccc2P(C)(C)=O)n1 (stereo not drawn) [GT-03781, 3-(4-((4-(4-((5-chloro-4-((2-(dimethylphosphoryl)phenyl)amino)pyrimidin-2-yl)amino)-3-methoxyphenyl)piperazin-1-yl)methyl)phenyl)piperidine-2,6-dione] | A (A is defined as 0% ≤ substrate protein remaining % ≤ 80%) | IC50 (H1975): 500 to 1000 nM; IC50 (SR): 1 to 10 nM; inhibition at 0.5 µM [1]: 40 to 53%; inhibition at 2 µM [1]: 60 to 80%
3 | CCc1cc2c(cc1N1CCN(Cc3cncc(N4CCC(=O)NC4=O)c3)CC1)C(C)(C)c1[nH]c3cc(C#N)ccc3c1C2=O [GT-07835, 8-(4-((5-(2,4-dioxotetrahydropyrimidin-1(2H)-yl)pyridin-3-yl)methyl)piperazin-1-yl)-9-ethyl-6,6-dimethyl-11-oxo-6,11-dihydro-5H-benzo[b]carbazole-3-carbonitrile] | A (A is defined as 0% ≤ substrate protein remaining % ≤ 80%) | –
4 | COc1cc(N2CCN(Cc3cnc(N4CCC(=O)NC4=O)cn3)CC2)ccc1Nc1ncc(Cl)c(Nc2ccccc2P(C)(C)=O)n1 [GT-07749, 1-(5-((4-(4-((5-chloro-4-((2-(dimethylphosphoryl)phenyl)amino)pyrimidin-2-yl)amino)-3-methoxyphenyl)piperazin-1-yl)methyl)pyrazin-2-yl)dihydropyrimidine-2,4(1H,3H)-dione] | A (A is defined as 0% ≤ substrate protein remaining % ≤ 80%) | –
5 | Cc1cc(Nc2ncc(Cl)c(Nc3ccccc3S(=O)(=O)C(C)C)n2)c(OC(C)C)cc1C1CCN(Cc2cnc(N3CCC(=O)NC3=O)cn2)CC1 [GT-07758, 1-(5-((4-(4-((5-chloro-4-((2-(isopropylsulfonyl)phenyl)amino)pyrimidin-2-yl)amino)-5-isopropoxy-2-methylphenyl)piperidin-1-yl)methyl)pyrazin-2-yl)dihydropyrimidine-2,4(1H,3H)-dione] | A (A is defined as 0% ≤ substrate protein remaining % ≤ 80%) | –
6 | CCc1cc2c(cc1N1CCC(N3CCN(Cc4cc(N5CCC(=O)NC5=O)cnc4F)CC3)CC1)C(C)(C)c1[nH]c3cc(C#N)ccc3c1C2=O [GT-07755, 8-(4-(4-((5-(2,4-dioxotetrahydropyrimidin-1(2H)-yl)-2-fluoropyridin-3-yl)methyl)piperazin-1-yl)piperidin-1-yl)-9-ethyl-6,6-dimethyl-11-oxo-6,11-dihydro-5H-benzo[b]carbazole-3-carbonitrile] | A (A is defined as 0% ≤ substrate protein remaining % ≤ 80%) | –
7 | COc1cc(N2CCN(Cc3ccc(C4CCC(=O)NC4=O)c(F)c3)CC2)ccc1Nc1ncc(Cl)c(Nc2ccccc2P(C)(C)=O)n1 (stereo not drawn) [GT-03782, 3-(4-((4-(4-((5-chloro-4-((2-(dimethylphosphoryl)phenyl)amino)pyrimidin-2-yl)amino)-3-methoxyphenyl)piperazin-1-yl)methyl)-2-fluorophenyl)piperidine-2,6-dione] | A (A is defined as 0% ≤ substrate protein remaining % ≤ 80%) | IC50 (SR): 10 to 50 nM; inhibition at 0.5 µM [1]: 40 to 53%; inhibition at 2 µM [1]: 80 to 100%
8 | CCc1cc2c(cc1N1CCN(Cc3cc(N4CCC(=O)NC4=O)ncc3F)CC1)C(C)(C)c1[nH]c3cc(C#N)ccc3c1C2=O [GT-07833, 8-(4-((2-(2,4-dioxotetrahydropyrimidin-1(2H)-yl)-5-fluoropyridin-4-yl)methyl)piperazin-1-yl)-9-ethyl-6,6-dimethyl-11-oxo-6,11-dihydro-5H-benzo[b]carbazole-3-carbonitrile] | A (A is defined as 0% ≤ substrate protein remaining % ≤ 80%) | –
9 | CCc1cc2c(cc1N1CCN(Cc3cc(C4CCC(=O)NC4=O)cnc3F)CC1)C(C)(C)c1[nH]c3cc(C#N)ccc3c1C2=O (stereo not drawn) [GT-07836, 8-(4-((5-(2,6-dioxopiperidin-3-yl)-2-fluoropyridin-3-yl)methyl)piperazin-1-yl)-9-ethyl-6,6-dimethyl-11-oxo-6,11-dihydro-5H-benzo[b]carbazole-3-carbonitrile] | A (A is defined as 0% ≤ substrate protein remaining % ≤ 80%) | –
10 | COc1cc(N2CCN(Cc3cc(N4CCC(=O)NC4=O)cnc3F)CC2)ccc1Nc1ncc(Cl)c(Nc2ccccc2P(C)(C)=O)n1 [GT-07748, 1-(5-((4-(4-((5-chloro-4-((2-(dimethylphosphoryl)phenyl)amino)pyrimidin-2-yl)amino)-3-methoxyphenyl)piperazin-1-yl)methyl)-6-fluoropyridin-3-yl)dihydropyrimidine-2,4(1H,3H)-dione] | A (A is defined as 0% ≤ substrate protein remaining % ≤ 80%) | –
11 | CCc1cc2c(cc1N1CCN(Cc3ccnc(N4CCC(=O)NC4=O)c3)CC1)C(C)(C)c1[nH]c3cc(C#N)ccc3c1C2=O [GT-07834, 8-(4-((2-(2,4-dioxotetrahydropyrimidin-1(2H)-yl)pyridin-4-yl)methyl)piperazin-1-yl)-9-ethyl-6,6-dimethyl-11-oxo-6,11-dihydro-5H-benzo[b]carbazole-3-carbonitrile] | A (A is defined as 0% ≤ substrate protein remaining % ≤ 80%) | –
12 | COc1cc(N2CCC(N(C)Cc3cc(N4CCC(=O)NC4=O)cnc3F)CC2)ccc1Nc1ncc(Cl)c(Nc2ccccc2P(C)(C)=O)n1 [GT-07750, 1-(5-(((1-(4-((5-chloro-4-((2-(dimethylphosphoryl)phenyl)amino)pyrimidin-2-yl)amino)-3-methoxyphenyl)piperidin-4-yl)(methyl)amino)methyl)-6-fluoropyridin-3-yl)dihydropyrimidine-2,4(1H,3H)-dione] | A (A is defined as 0% ≤ substrate protein remaining % ≤ 80%) | –
13 | CCc1cc2c(cc1N1CCC(N3CCN(Cc4cnc(N5CCC(=O)NC5=O)cn4)CC3)CC1)C(C)(C)c1[nH]c3cc(C#N)ccc3c1C2=O [GT-07756, 8-(4-(4-((5-(2,4-dioxotetrahydropyrimidin-1(2H)-yl)pyrazin-2-yl)methyl)piperazin-1-yl)piperidin-1-yl)-9-ethyl-6,6-dimethyl-11-oxo-6,11-dihydro-5H-benzo[b]carbazole-3-carbonitrile] | A (A is defined as 0% ≤ substrate protein remaining % ≤ 80%) | –
14 | CCc1cc2c(cc1N1CCC(N3CCN(Cc4ncc(N5CCC(=O)NC5=O)cc4F)CC3)CC1)C(C)(C)c1[nH]c3cc(C#N)ccc3c1C2=O [GT-07924, 8-(4-(4-((5-(2,4-dioxotetrahydropyrimidin-1(2H)-yl)-3-fluoropyridin-2-yl)methyl)piperazin-1-yl)piperidin-1-yl)-9-ethyl-6,6-dimethyl-11-oxo-6,11-dihydro-5H-benzo[b]carbazole-3-carbonitrile] | A (A is defined as 0% ≤ substrate protein remaining % ≤ 80%) | –
